# In US20180215727A1, “LYSYL OXIDASE-LIKE 2 INHIBITORS AND USES THEREOF” (PharmAkea, Inc., priority 2015, published 2018):
# Counter-ions that a name gives are not always drawn.
# Target: T1, human LOXL2 (Homo sapiens, UniProt Q9Y4K0)
# T1 construct: expressed in transfected cells; secreted protein in 10-20x concentrated conditioned media
# T1 sequence (Q9Y4K0 26-774): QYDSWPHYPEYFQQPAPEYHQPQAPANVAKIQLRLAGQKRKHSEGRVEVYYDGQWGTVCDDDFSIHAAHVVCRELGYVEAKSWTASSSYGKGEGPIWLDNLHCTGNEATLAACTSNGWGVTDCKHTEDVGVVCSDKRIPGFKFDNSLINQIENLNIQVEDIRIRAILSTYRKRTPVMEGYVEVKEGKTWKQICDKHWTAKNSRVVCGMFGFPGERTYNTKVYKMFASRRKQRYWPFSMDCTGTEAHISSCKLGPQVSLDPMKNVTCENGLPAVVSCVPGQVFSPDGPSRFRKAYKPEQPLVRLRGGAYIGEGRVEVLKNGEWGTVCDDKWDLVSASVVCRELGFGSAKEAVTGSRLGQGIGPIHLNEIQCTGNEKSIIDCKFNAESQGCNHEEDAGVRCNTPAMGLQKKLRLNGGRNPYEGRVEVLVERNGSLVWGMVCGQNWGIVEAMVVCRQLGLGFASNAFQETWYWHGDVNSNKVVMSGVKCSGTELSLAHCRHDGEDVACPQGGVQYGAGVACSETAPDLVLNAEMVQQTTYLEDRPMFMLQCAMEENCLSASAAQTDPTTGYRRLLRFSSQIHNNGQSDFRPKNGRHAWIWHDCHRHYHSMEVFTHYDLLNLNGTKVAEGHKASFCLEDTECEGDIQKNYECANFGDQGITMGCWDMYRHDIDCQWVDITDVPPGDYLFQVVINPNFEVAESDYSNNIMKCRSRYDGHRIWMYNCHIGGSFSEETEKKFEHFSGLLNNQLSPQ
# Test: Human LOXL2 Amine Oxidase Activity Assay (Amplex Red fluorescence)
# Format: biochemical
# Conditions: concentrated conditioned media from CHO cells stably expressing human LOXL2, test compound incubated 2 h at 37° C., pH8, DAP substrate
# Description: Example B-1: Human LOXL2 Amine Oxidase Activity Assay
# LOXL2 amine oxidase activity is evaluated by measuring Amplex Red fluorescence using 10-20× concentrated conditioned media from CHO cells stably expressing human LOXL2. To assay for amine oxidase activity, 10 μL of the concentrated conditioned media is incubated with 2 μL of test compound in DMSO and 73 μL Assay Buffer (50 mM Borate Buffer, pH8) for 2 h at 37° C. After the 2 h incubation, 5 μl of 10 mM 1,5-Diaminopentane (DAP) diluted in Assay Buffer and 10 μl of Amplex Red Mix (8.5 μl Assay Buffer+0.5 μl of 10 mM Amplex Red+1 μl of 500 U/ml Horseradish Peroxidase) are added and the plate mixed and immediately placed on the FlexStaion for fluorescence measurements. Fluorescence is read in kinetic mode every 2 min for 1 hour at excitation=544 and emission=590. The amine oxidase activity is calculated from the slope of the linear portion of the curve.
row,SMILES,IC50
1,"NCc1cc(=O)c2cc(C(=O)N3C[C@@H](O)[C@H](F)C3)ccc2o1 (racemic) [Compound 1-25, Racemic-trans-2-(aminomethyl)-6-(3-fluoro-4-hydroxypyrrolidine-1-carbonyl)-4H-chromen-4-one hydrochloride]",300 to 1000 nM
2,"NCc1cc(=O)c2cc(Br)ccc2o1 [Compound 1-1, 2-(Aminomethyl)-6-bromo-4H-chromen-4-one hydrochloride]",< 300 nM
3,"C#Cc1ccc2oc(CN)cc(=O)c2c1 [Compound 1-3, 2-(Aminomethyl)-6-ethynyl-4H-chromen-4-one hydrochloride]",< 300 nM
4,"CC(C)(O)C#Cc1ccc2oc(CN)cc(=O)c2c1 [Compound 1-4, 2-(Aminomethyl)-6-(3-hydroxy-3-methylbut-1-yn-1-yl)-4H-chromen-4-one hydrochloride]",< 300 nM
5,"NCc1cc(=O)c2cc(-c3ccccn3)ccc2o1 [Compound 1-7, 2-(Aminomethyl)-6-(pyridin-2-yl)-4H-chromen-4-one hydrochloride]",< 300 nM
6,"NCc1cc(=O)c2cc(-c3cccnc3)ccc2o1 [Compound 1-8, 2-(Aminomethyl)-6-(pyridin-3-yl)-4H-chromen-4-one hydrochloride]",< 300 nM
7,"NCc1cc(=O)c2ccc(-n3cccn3)cc2o1 [Compound 1-11, 2-(Aminomethyl)-7-(1H-pyrazol-1-yl)-4H-chromen-4-one hydrochloride]",< 300 nM
8,"Cn1cc(-c2ccc3oc(CN)cc(=O)c3c2)cn1 [Compound 1-12, 2-(Aminomethyl)-6-(1-methyl-1H-pyrazol-4-yl)-4H-chromen-4-one hydrochloride]",< 300 nM
9,"Cn1cc(-c2ccc3oc(CN)cc(=O)c3c2)nn1 [Compound 1-13, 2-(Aminomethyl)-6-(1-methyl-1H-1,2,3-triazol-4-yl)-4H-chromen-4-one hydrochloride]",< 300 nM
10,"NCc1cc(=O)c2cc(-c3cn(CCO)nn3)ccc2o1 [Compound 1-16, 2-(Aminomethyl)-6-(1-(2-hydroxyethyl)-1H-1,2,3-triazol-4-yl)-4H-chromen-4-one hydrochloride]",300 to 1000 nM
11,"CN(C)C(=O)Cn1cc(-c2ccc3oc(CN)cc(=O)c3c2)nn1 [Compound 1-17, 2-(4-(2-(Aminomethyl)-4-oxo-4H-chromen-6-yl)-1H-1,2,3-triazol-1-yl)-N,N-dimethylacetamide hydrochloride]",< 300 nM
12,"NCc1cc(=O)c2cc(C(=O)N3CCCCC3)ccc2o1 [Compound 1-19, 2-(Aminomethyl)-6-(piperidine-1-carbonyl)-4H-chromen-4-one hydrochloride]",300 to 1000 nM
13,"NCc1cc(=O)c2cc(N3CC[C@H](O)C3)ccc2o1 [Compound 1-20, (S)-2-(Aminomethyl)-6-(3-hydroxypyrrolidin-1-yl)-4H-chromen-4-one hydrochloride]",300 to 1000 nM
14,"NCc1cc(=O)c2cc(C(=O)NCCn3cncn3)ccc2o1 [Compound 1-21, N-(2-(1H-1,2,4-Triazol-1-yl)ethyl)-2-(aminomethyl)-4-oxo-4H-chromene-6-carboxamide hydrochloride]",300 to 1000 nM
15,"NCc1cc(=O)c2cc(C(=O)NCCS(N)(=O)=O)ccc2o1 [Compound 1-22, 2-(Aminomethyl)-4-oxo-N-(2-sulfamoylethyl)-4H-chromene-6-carboxamide hydrochloride]",300 to 1000 nM
16,"NCc1cc(=O)c2cc(C(=O)N3CC[C@@H](N)C3)ccc2o1 [Compound 1-23, (R)-2-(Aminomethyl)-6-(3-aminopyrrolidine-1-carbonyl)-4H-chromen-4-one dihydrochloride]",300 to 1000 nM
17,"COc1ccc2oc(CN)cc(=O)c2c1 [Compound 1-27, 2-(Aminomethyl)-6-methoxy-4H-chromen-4-one hydrochloride]",< 300 nM
18,"COc1ccc2c(=O)cc(CN)oc2c1 [Compound 1-28, 2-(Aminomethyl)-7-methoxy-4H-chromen-4-one hydrochloride]",< 300 nM
19,"NCc1cc(=O)c2ccc(OCc3ccccc3)cc2o1 [Compound 1-29, 2-(Aminomethyl)-7-(benzyloxy)-4H-chromen-4-one hydrochloride]",< 300 nM
20,"NCc1cc(=O)c2cc(OCc3ccccc3)ccc2o1 [Compound 1-30, 2-(Aminomethyl)-6-(benzyloxy)-4H-chromen-4-one hydrochloride]",< 300 nM
21,"C#Cc1ccc2c(=O)cc(CN)oc2c1 [Compound 1-31, 2-(aminomethyl)-7-ethynyl-4H-chromen-4-one hydrochloride]",300 to 1000 nM
22,"CN(C)C(=O)COc1ccc2c(=O)cc(CN)oc2c1 [Compound 1-32, 2-((2-(Aminomethyl)-4-oxo-4H-chromen-7-yl)oxy)-N,N-dimethylacetamide hydrochloride]",300 to 1000 nM
23,"NCc1cc(=O)c2ccc(-c3cn(-c4ccccc4)nn3)cc2o1 [Compound 1-33, 2-(Aminomethyl)-7-(1-phenyl-1H-1,2,3-triazol-4-yl)-4H-chromen-4-one hydrochloride]",< 300 nM
24,"NCc1cc(=O)c2cc(OCC(=O)O)ccc2o1 [Compound 1-34, 2-((2-(Aminomethyl)-4-oxo-4H-chromen-6-yl)oxy)acetic acid hydrochloride]",300 to 1000 nM
25,"CN(C)C(=O)COc1ccc2oc(CN)cc(=O)c2c1 [Compound 1-35, 2-((2-(Aminomethyl)-4-oxo-4H-chromen-6-yl)oxy)-N,N-dimethylacetamide hydrochloride]",300 to 1000 nM

# Next, values leading:
row,IC50,SMILES
1,> 1000 nM,"NCc1cc(=O)c2cc(C(=O)N3CCC(C(=O)O)C3)ccc2o1 (single isomer, unassigned) [Compound 1-37, (R) or (S)-1-(2-(Aminomethyl)-4-oxo-4H-chromene-6-carbonyl)pyrrolidine-3-carboxylic Acid hydrochloride]"
2,> 1000 nM,"NCc1cc(=O)c2cc(C(=O)N3CCC(C(=O)O)C3)ccc2o1 (single isomer, unassigned) [Compound 1-38, (R) or (S)-1-(2-(Aminomethyl)-4-oxo-4H-chromene-6-carbonyl)pyrrolidine-3-carboxylic Acid hydrochloride]"
3,< 300 nM,"NCc1cc(=O)c2ccc(Br)cc2o1 [Compound 1-2, 2-(Aminomethyl)-7-bromo-4H-chromen-4-one hydrochloride]"
4,< 300 nM,"C=C(C)C#Cc1ccc2oc(CN)cc(=O)c2c1 [Compound 1-5, 2-(Aminomethyl)-6-(3-methylbut-3-en-1-yn-1-yl)-4H-chromen-4-one trifluoroacetate]"
5,< 300 nM,"NCc1cc(=O)c2cc(-c3ccccc3)ccc2o1 [Compound 1-6, 2-(Aminomethyl)-6-phenyl-4H-chromen-4-one hydrochloride]"
6,< 300 nM,"NCc1cc(=O)c2cc(-c3cnc4ccccc4c3)ccc2o1 [Compound 1-9, 2-(Aminomethyl)-6-(quinolin-3-yl)-4H-chromen-4-one hydrochloride]"
7,< 300 nM,"NCc1cc(=O)c2cc(-n3cccn3)ccc2o1 [Compound 1-10, 2-(Aminomethyl)-6-(1H-pyrazol-1-yl)-4H-chromen-4-one hydrochloride]"
8,< 300 nM,"NCc1cc(=O)c2cc(-c3cn(-c4ccccc4)nn3)ccc2o1 [Compound 1-14, 2-(Aminomethyl)-6-(1-phenyl-1H-1,2,3-triazol-4-yl)-4H-chromen-4-one hydrochloride]"
9,< 300 nM,"NCc1cc(=O)c2cc(-c3cn(Cc4ccccc4)nn3)ccc2o1 [Compound 1-15, 2-(Aminomethyl)-6-(1-benzyl-1H-1,2,3-triazol-4-yl)-4H-chromen-4-one hydrochloride]"
10,> 1000 nM,"CN(C)C(=O)c1ccc2oc(CN)cc(=O)c2c1 [Compound 1-18, 2-(Aminomethyl)-N,N-dimethyl-4-oxo-4H-chromene-6-carboxamide hydrochloride]"
11,300 to 1000 nM,"COC(=O)[C@@H]1CCN(C(=O)c2ccc3oc(CN)cc(=O)c3c2)C1 [Compound 1-24, Methyl (R)-1-(2-(aminomethyl)-4-oxo-4H-chromene-6-carbonyl)pyrrolidine-3-carboxylate hydrochloride]"
12,300 to 1000 nM,"CS(=O)(=O)CCNC(=O)c1ccc2oc(CN)cc(=O)c2c1 [Compound 1-26, 2-(Aminomethyl)-N-(2-(methylsulfonyl)ethyl)-4-oxo-4H-chromene-6-carboxamide hydrochloride]"
13,> 1000 nM,"COC(=O)[C@H]1CCN(C(=O)c2ccc3oc(CN)cc(=O)c3c2)C1 [Compound 1-36, Methyl (S)-1-(2-(aminomethyl)-4-oxo-4H-chromene-6-carbonyl)pyrrolidine-3-carboxylate hydrochloride]"
